From patent US9839622B2, “Methods of treating hypothalamic obesity” (Zafgen, Inc., priority 2012, dated 2017) come the findings set out here.

Test [1] is described as follows: Mouse model of hypothalamic injury (gold thioglucose). As to conditions: 0.1 mg/kg daily subcutaneous. Type of test: in vivo, C57/BL6 mice. As for the experimental part: FIG. 1 depicts body weight change (percent) of C57/BL6 mice treated with single dose of 0.5 g/kg gold thioglucose, and after 40 days, started on 0.1 mg/kg daily subcutaneous dose of 6-O-(4-dimethylaminoethoxy)cinnamoyl fumagillol (ZGN-440). FIG. 2 depicts normalized food intake in GTG mice to the level of normal mice that were not treated with gold thioglucose, after 0.1 mg/kg daily subcutaneous dose of 6-O-(4-dimethylaminoethoxy)cinnamoyl fumagillol. Gold thioglucose (GTG) is a chemical treatment used as a model of hypothalamic injury. C57/BL6 mice were treated with single dose of 0.5 g/kg gold thioglucose. After 40 days a cohort was started on 0.1 mg/kg daily subcutaneous dose of 6-O-(4-dimethylaminoethoxy)cinnamoyl fumagillol (ZGN-440). […] (FIG. 1). The food intake level of GTG treated mice was increased to over 3 g/day/mouse, where in GTG mice treated with ZGN-440 the food intake decreased to the level of normal mice that were not treated with gold thioglucose (below 3 g/day). (FIG. 2).

The nature of test [2]: Treatment of obese humans also taking anti-depressants known to cause hypothalamic obesity. Type of test: in vivo, human. The conditions noted are these: obese humans on anti-depressants, average dose 1.44 mg twice weekly subcutaneous. As to the method: FIG. 3 depicts percentage reduction in body weight by up to seven weeks of treatment with 6-O-(4-dimethylaminoethoxy)cinnamoyl fumagillol (ZGN-440; average dose of 1.44 mg administered twice weekly by subcutaneous administration, n=5) or placebo (administered twice weekly by subcutaneous administration, n=2) in obese human patients treated otherwise for depression with mirtazapine, sertraline, imipramine, paroxetine, or amitryptyline.
Five of these patients were also administered ZGN-440 (average dose of 1.44 mg, administered twice weekly by subcutaneous administration). On average, patients lost 5.4 percent of their baseline body weight over the seven week treatment. […] At baseline, the average (±SEM) body weight was 100.2±3.2 kg, and the average body mass index was 38.8±1.7 kg/m^2. […] (FIG. 3).

Regarding `CO[C@@H]1[C@H](OC(=O)/C=C/c2ccc(OCCN(C)C)cc2)CC[C@]2(CO2)[C@H]1[C@@]1(C)O[C@@H]1CC=C(C)C` [ZGN-440, 6-O-(4-dimethylaminoethoxy)cinnamoyl fumagillol], in test [1] (GTG (0.5 g/kg single dose) C57/BL6 mice, started after 40 days, FIG. 1), the body weight change entry is on record as “Significant weight loss”. Besides, the food intake result in test [1] (GTG mice, untreated GTG mice over 3 g/day/mouse, FIG. 2) is “below 3 g/day”. For the same compound, the “loss of baseline body weight (average)” value in test [2] (n=5, seven week treatment, FIG. 3) was 5.4%. The “weight loss vs. placebo (percent change of body weight from baseline, Student's t test)” value in test [2] (up to seven weeks, placebo failed to lose weight) is on record as “statistically significant”.
